This experiment concerns SMN2-luciferase reporter. Briefly: SMN2-luciferase reporter assay (clonal HEK-293 SMN2-luc cells). The class given is cell-based, human. Also on record: % activation: concentration or dose not given beside the values. Conditions: for Active / % activation: reporter assay; for Active / EC50 / Emax: Table 6; for EC50 / Emax: Homo sapiens, HEK293, reporter assay; for EC50: read-out: Ec50; for Emax: read-out: Max % Activity; for % activation: Table 5. The method, then: The reporter cell lines were plated at 50,000 cells per well in 96-well plates and incubated overnight. Compounds were added to each well and incubated at 37° C. overnight. The final DMSO concentration was 0.1%. Luciferase activity was assayed using either STEADYGLO (PROMEGA E2510) or DUALGLO (PROMEGA E2920) luciferase using the WALLAC ENVISION multilabel reader. For detailed assay conditions see Table 2A. All data points were transformed from CPS to percent increase over basal expression in the treated control wells (DMSO or H2O as appropriate).
Plates were sealed with porous paper tape and incubated for 24 hours. […] For comparison, data points were transformed from CPS to percent activation over basal expression in the DMSO treated control wells.
For comparison, all data points are expressed as percent increase over basal luciferase expression in the control cells.

The source of these data is patent US9212209B2, “Screening methods for spinal muscular atrophy” (Indiana University Research and Technology Corporation, priority 2012, dated 2015).

As to `CC1CC(C(=O)NC2CCCc3ccccc32)=NO1` (stereo not drawn) [CAL-1], the Active entry is “No”.

Turning to `CC1CC(C(=O)Nc2cnccn2)=NO1` (stereo not drawn) [CAL-2], the Active result was “No”.

With `Cc1cc(NC(=O)C2=NOC(C)C2)no1` (stereo not drawn) [CAL-3], the Active entry is reported as “No”.

Take `COc1ccc(NC(=O)C2=NOC(C)C2)cc1` (stereo not drawn) [CAL-4]: the EC50 was 8 µM, the Emax is 211% and the Active result was “Yes”.

For the compound `CC1CC(C(=O)Nc2ccc(F)cc2)=NO1` (stereo not drawn) [CAL-5], the EC50 came to 10 µM, the Emax was 108% and the Active entry is recorded as “Yes”.

For `CC1CC(C(=O)Nc2ccc(Cl)cc2F)=NO1` (stereo not drawn) [CAL-6], the EC50 stood at 6.5 µM, the Emax worked out at 180% and the Active entry is recorded as “Yes”.

In the case of `O=C(Nc1ccc(Cl)cc1)C1=NOC(c2ccccc2)C1` (stereo not drawn) [CAL-7], the EC50 was determined as 10 µM, the Emax amounted to 134% and the Active entry is reported as “Yes”.

Turning to `CC1CC(C(=O)Nc2ccc(F)c(Cl)c2)=NO1` (stereo not drawn) [CAL-8], the EC50 was determined as 10 µM, the Emax turned out to be 120% and the Active result is listed as “Weak”.

Take `CC1CC(C(=O)Nc2cccnc2)=NO1` (stereo not drawn) [CAL-9]: the Active result is on record as “No”.

With `O=C(Nc1ccc(F)c(Cl)c1)C1=NOC(C2CC2)C1` (stereo not drawn) [CAL-10], the EC50 was 2 µM, the Emax was 250% and the Active entry is given as “Yes”.

For the compound `COc1cc2c(c(OC)c1OC)C(c1ccccc1Cl)CC(=O)N2` (stereo not drawn) [CAL-21], the EC50 stood at 251 µM, the Emax is 14% and the Active entry is recorded as “Yes”.

As to `COc1cc2c(c(OC)c1OC)C(c1ccccc1F)CC(=O)N2` (stereo not drawn) [CAL-22], the Active entry is given as “No”.

For the compound `COc1ccc2c(c1OC)C(c1cc(Br)ccc1F)CC(=O)N2` (stereo not drawn) [CAL-23], the Active result is listed as “No”.

As to `CC(C)c1cc(C(=O)Nc2cccc(Cl)c2)no1` [CAL-25], the EC50 is 0.35 µM, the Emax stood at 237% and the Active entry was “Yes”.

As for `COc1ccc(NC(=O)c2cc(C(C)C)on2)cc1OC` [CAL-26], the EC50 amounted to 94 µM, the Emax is 160% and the Active entry is “Yes”.

Take `COc1ccc(NC(=O)c2cc(C(C)C)on2)c(OC)c1` [CAL-27]: the EC50 stood at 1 µM, the Emax was 125% and the Active result is listed as “Yes”.

With `CC(C)c1cc(C(=O)Nc2cc(Cl)ccc2Cl)no1` [CAL-28], the EC50 worked out at 0.9 µM, the Emax turned out to be 59% and the Active result was “Yes”.

For `COc1ccc(Cl)cc1NC(=O)c1cc(C(C)C)on1` [CAL-29], the Active result is recorded as “No”.

As for `C=C/C(Cl)=C(\CCl)NC(=O)c1cc(C(C)C)on1` [CAL-30], the Active entry is reported as “No”.

For the compound `CC(C)c1cc(C(=O)Nc2ccccc2C(F)(F)F)no1` [CAL-31], the EC50 was 16 µM, the Emax was determined as 154% and the Active result is listed as “Yes”.

For `O=C(Nc1ccc2c(c1)OCO2)c1cc(C2CC2)on1` [CAL-33], the EC50 turned out to be 1.7 µM, the Emax turned out to be 217% and the Active entry is reported as “Yes”.

Turning to `O=C(c1cc(C2CC2)on1)N1CCCc2ccccc21` [CAL-36], the Active entry is listed as “No”.

Take `CN(C(=O)c1cc(C2CC2)on1)c1ccccc1` [CAL-37]: the EC50 worked out at 30 µM, the Emax amounted to 143% and the Active result is recorded as “Yes”.

As for `O=C(Nc1ccc(F)c(Cl)c1)c1noc(C2CC2)c1[N+](=O)[O-]` [CAL-38], the Active result is reported as “No”.

As to `CCN(CC)CCCNC(=O)c1cc(C2CC2)on1` [CAL-42], the Active result is given as “No”.

Take `CCOc1ccc(Br)cc1C1CC(=O)Nc2cc(OC)c(OC)c(OC)c21` (stereo not drawn) [CAL-50]: the Active entry is “No”.

As to `COc1cc(Br)c(C2CC(=O)Nc3cc(OC)c(OC)c(OC)c32)cc1OC` (stereo not drawn) [CAL-51], the Active entry is recorded as “No”.

With `COc1cc2c(c(OC)c1)C(c1cc3c(cc1Br)OCO3)CC(=O)N2` (stereo not drawn) [CAL-52], the Active entry is reported as “No”.

With `COc1cc2c(c(OC)c1OC)C(c1c(F)cccc1Cl)CC(=O)N2` (stereo not drawn) [CAL-53], the EC50 amounted to 91 µM, the Emax stood at 27% and the Active result is recorded as “Yes”.

`COc1cc2c(c(OC)c1OC)C(c1cccc(C(F)(F)F)c1)CC(=O)N2` (stereo not drawn) [CAL-55]: the Active result was “No”.

For the compound `COc1cc2c(c(OC)c1OC)C(c1cccc(Cl)c1Cl)CC(=O)N2` (stereo not drawn) [CAL-56], the Active result is given as “No”.

For the compound `COc1cc2c(c(OC)c1OC)C(c1ccc(F)c(F)c1)CC(=O)N2` (stereo not drawn) [CAL-57], the Active result is recorded as “No”.

For the compound `COc1ccc(-c2cn3cccc(C)c3n2)cc1Br` [Compound 32531], the “% activation” value amounted to 108%.

On to `Brc1ccc(-c2cn3ccccc3n2)cc1` [Compound 66278], for which the “% activation” value came to 114%.

Take `CC(=O)N1c2ccccc2C(Nc2ccccc2)CC1C` (stereo not drawn) [Compound 66854]: the “% activation” value is reported as 210%.

Turning to `Brc1ccc(OCc2cn3cccnc3n2)c(Br)c1` [Compound 67615], the “% activation” value is 105%.

For `Cc1ccc(-c2cc(-c3ccccc3Cl)[nH]n2)c(O)c1` [Compound 72939], the “% activation” value was found to be 102%.

With `Cc1c(C(=O)NCCC(C)C)oc2ccc3c(c12)C(O)CC(C)(C)O3` (stereo not drawn) [Compound 79199], the “% activation” value is recorded as 102%.

As for `CNC(=O)c1ccc2nc(N3CCCCC3)sc2c1` [Compound 79213], the “% activation” value is recorded as 90%.

Consider `O=C1CCc2cc(C(=O)CSc3ccccc3)ccc2N1` [Compound 98541], for which the “% activation” value is reported as 124%.

Regarding `O=C(NCCn1ccc2ccccc21)c1ccc2c(c1)OCO2` [Compound 107992], the “% activation” value was found to be 121%.

As for `CCN1C(=O)c2cccc3c(S(=O)(=O)NC4CCCC4)ccc1c23` [Compound 109657], the “% activation” value was 152%.

Regarding `CC(C)(C)C(=O)Nc1nc(COc2ccccc2)cs1` [Compound 109981], the “% activation” value is 98%.

In the case of `COC(=O)c1ccc2nc(NC(=O)C(C)C)sc2c1` [Compound 110116], the “% activation” value was 97%.

Consider `O=C(Nc1nc2c(s1)Cc1ccccc1-2)C1=COCCO1` [Compound 110181], for which the “% activation” value is recorded as 120%.

Consider `N#Cc1ccsc1NC(=O)CCc1ccccc1` [Compound 110425], for which the “% activation” value is 93%.

As for `CC(C)c1cc(C(=O)Nc2ccc3c(c2)OCO3)no1` [LDN-75676], the EC50 stood at 2.6 µM, the Emax worked out at 337%, the “% activation” value is 136% and the Active result is recorded as “Yes”.

`CC(C)Cc1cc(C(=O)Nc2ccc(F)c(Cl)c2)no1` [LDN-75879]: the EC50 came to 1.5 µM, the Emax turned out to be 180% and the Active result was “Yes”.

On to `COc1cc2c(c(OC)c1OC)C(c1ccc(Cl)cc1Cl)CC(=O)N2` (stereo not drawn) [LDN-76074], for which the Active entry is “No/Weak”.

For the compound `COc1cc2c(c(OC)c1OC)C(c1cccnc1)CC(=O)N2` (stereo not drawn) [LDN-76158], the Active entry is “No”.

With `COc1cc2c(c(OC)c1)C(c1c(Cl)cccc1Cl)CC(=O)N2` (stereo not drawn) [LDN-76515], the Active result is reported as “No”.

For `CC(C)c1cc(C(=O)Nc2ccc3ccccc3c2)no1` [LDN-211826], the half-maximal effective concentration (EC50) is 1.1 µM, the Emax turned out to be 150% and the Active entry is “Yes”.

As for `CC(C)c1cc(C(=O)Nc2cccc3ccccc23)no1` [LDN-211827], the Active result is recorded as “No/Weak”.

The EC50 is the concentration needed to bring the measured effect to its halfway point.
